{
  "source": "paper PMC7138307",
  "about": "(PLoS ONE, 2020)",
  "key": {"TAO2": {"target": "T1, TAO2 (Mus musculus, UniProt Q6ZQ29)", "T1 construct": "from tissue; host or cells: mouse cortical brain lysate", "T1 sequence (Q6ZQ29 1-1240)": "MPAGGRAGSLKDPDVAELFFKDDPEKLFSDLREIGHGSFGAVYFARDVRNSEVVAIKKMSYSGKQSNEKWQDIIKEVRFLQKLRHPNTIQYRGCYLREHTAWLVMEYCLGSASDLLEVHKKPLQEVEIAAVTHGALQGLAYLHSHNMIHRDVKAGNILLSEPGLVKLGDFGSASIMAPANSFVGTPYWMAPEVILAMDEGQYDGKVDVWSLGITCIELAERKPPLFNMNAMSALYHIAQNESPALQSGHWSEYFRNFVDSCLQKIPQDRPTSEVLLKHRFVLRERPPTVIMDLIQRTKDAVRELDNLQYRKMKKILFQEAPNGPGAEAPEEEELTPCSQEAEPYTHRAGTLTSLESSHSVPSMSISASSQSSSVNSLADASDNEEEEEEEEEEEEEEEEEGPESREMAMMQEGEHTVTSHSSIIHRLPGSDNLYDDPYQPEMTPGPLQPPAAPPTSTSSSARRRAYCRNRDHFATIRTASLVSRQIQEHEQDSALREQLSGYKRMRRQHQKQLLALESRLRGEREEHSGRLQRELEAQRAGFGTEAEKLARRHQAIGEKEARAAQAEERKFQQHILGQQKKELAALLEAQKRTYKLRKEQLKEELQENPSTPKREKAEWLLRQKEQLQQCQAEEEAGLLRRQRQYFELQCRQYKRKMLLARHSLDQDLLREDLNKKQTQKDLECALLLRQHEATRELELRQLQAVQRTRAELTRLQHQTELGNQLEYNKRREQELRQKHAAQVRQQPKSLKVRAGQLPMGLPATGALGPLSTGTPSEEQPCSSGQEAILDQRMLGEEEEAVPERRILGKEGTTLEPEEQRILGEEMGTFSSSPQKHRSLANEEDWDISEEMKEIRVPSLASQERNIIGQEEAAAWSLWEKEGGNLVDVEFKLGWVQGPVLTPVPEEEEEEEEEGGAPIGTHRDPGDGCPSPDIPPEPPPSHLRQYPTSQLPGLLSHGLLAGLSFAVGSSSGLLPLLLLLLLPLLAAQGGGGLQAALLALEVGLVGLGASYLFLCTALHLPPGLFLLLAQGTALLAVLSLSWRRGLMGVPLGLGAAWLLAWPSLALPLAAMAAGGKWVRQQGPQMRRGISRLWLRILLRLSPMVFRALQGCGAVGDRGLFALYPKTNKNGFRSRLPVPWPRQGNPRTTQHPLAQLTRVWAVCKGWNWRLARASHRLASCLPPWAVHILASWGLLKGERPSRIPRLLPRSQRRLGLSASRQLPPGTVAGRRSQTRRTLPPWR", "assay": "Ex vivo KiNativ ATP/ADP probe competition in mouse cortical brain lysates", "format": "binding"}, "FER": {"target": "T2, FER (Mus musculus, UniProt P70451)", "T2 construct": "from tissue; host or cells: mouse cortical brain lysate", "T2 sequence (P70451 whole entry)": "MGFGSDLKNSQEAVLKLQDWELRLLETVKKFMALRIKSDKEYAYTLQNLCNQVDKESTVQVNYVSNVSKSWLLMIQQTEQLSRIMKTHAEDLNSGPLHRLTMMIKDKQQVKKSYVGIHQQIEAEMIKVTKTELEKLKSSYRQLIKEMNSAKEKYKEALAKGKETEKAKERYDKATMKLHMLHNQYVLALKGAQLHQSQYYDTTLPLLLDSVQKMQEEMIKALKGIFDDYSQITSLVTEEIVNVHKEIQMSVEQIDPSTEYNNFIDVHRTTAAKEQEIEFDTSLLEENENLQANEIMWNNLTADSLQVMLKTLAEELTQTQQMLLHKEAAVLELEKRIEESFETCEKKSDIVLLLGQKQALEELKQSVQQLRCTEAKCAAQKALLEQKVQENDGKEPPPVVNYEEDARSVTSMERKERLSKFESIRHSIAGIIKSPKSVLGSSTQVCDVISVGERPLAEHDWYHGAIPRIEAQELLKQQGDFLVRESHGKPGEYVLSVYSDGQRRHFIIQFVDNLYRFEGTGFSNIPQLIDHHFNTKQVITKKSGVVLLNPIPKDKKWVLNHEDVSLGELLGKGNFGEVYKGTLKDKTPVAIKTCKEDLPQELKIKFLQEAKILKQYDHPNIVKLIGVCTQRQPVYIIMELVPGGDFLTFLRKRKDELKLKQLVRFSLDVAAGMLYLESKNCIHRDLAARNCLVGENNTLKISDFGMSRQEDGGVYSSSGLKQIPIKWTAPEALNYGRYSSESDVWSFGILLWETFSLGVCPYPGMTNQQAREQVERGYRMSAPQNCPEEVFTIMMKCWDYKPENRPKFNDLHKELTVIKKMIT", "assay": "Ex vivo KiNativ ATP/ADP probe competition in mouse cortical brain lysates", "format": "binding"}},
  "data": [
    {"compound": "CCC(C)(O)C#Cc1cc2c(ccn2-c2ccnc(N)n2)cn1", "note": "(stereo not shown) [BIIB-TTBK1i]", "values": [
      {"measurement": "Percent Inhibition at 1μM", "setting": "TAO2; DVKAGNILLSEPGLVK, Lys2, ADP probe", "result": 82.6, "unit": "%"},
      {"measurement": "Percent Inhibition at 1μM", "setting": "TAO2; DVKAGNILLSEPGLVK, Lys2, ATP probe", "result": 93.2, "unit": "%"},
      {"measurement": "Percent Inhibition at 1μM", "setting": "TAO2; NSEVVAIKK, Lys1, ADP probe", "result": 86.4, "unit": "%"},
      {"measurement": "Percent Inhibition at 1μM", "setting": "FER; QEDGGVYSSSGLKQIPIK, Activation Loop, ADP probe", "result": 66.7, "unit": "%"},
      {"measurement": "Percent Inhibition at 1μM", "setting": "FER; QEDGGVYSSSGLKQIPIK, Protein Kinase Domain, ATP probe", "result": 69.4, "unit": "%"},
      {"measurement": "Percent Inhibition at 1μM", "setting": "FER; TPVAIKTCKEDLPQELK, Lys1, ADP probe", "result": 79.1, "unit": "%"},
      {"measurement": "Percent Inhibition at 1μM", "setting": "FER; TPVAIKTCKEDLPQELK, Lys1, ATP probe", "result": 74.9, "unit": "%"}
    ]}
  ]
}
